This note sets out measurements from the Biogen ADME set (Fang et al. 2023).

One may read the aqueous solubility as how much of the substance goes into solution per volume. A lower aqueous solubility goes with a poorly soluble substance.

The conditions of the data set: for aqueous solubility: pH 6.8.

≈ marks a conversion by molar mass, not a printed value. Some results are limits rather than exact numbers.

On to `CCCn1c(=O)[nH]c2nc(-c3ccc(S(=O)(=O)O)cc3)[nH]c2c1=O`, for which the intrinsic clearance, human liver microsomes was ≤ 4.74 mL/min/kg; the intrinsic clearance, rat liver microsomes is ≤ 10.7 mL/min/kg; the aqueous solubility worked out at 52.1 µg/mL (≈ 149 µM).
With `O=C(NCc1nnc2n1-c1ccccc1CC2)c1ccc2ccccc2c1`, the MDR1-MDCK efflux ratio was determined as 6.88; the intrinsic clearance, human liver microsomes was 28.6 mL/min/kg; the intrinsic clearance, rat liver microsomes was 517 mL/min/kg; the aqueous solubility was 34.3 µg/mL (≈ 96.9 µM).
Turning to `N#Cc1ccsc1NC(=O)c1ccccn1`, the aqueous solubility was 5.91 µg/mL (≈ 25.8 µM).
With `CN1CC[C@@H](c2c(O)cc(O)c3c(=O)cc(-c4ccccc4Cl)oc23)[C@@H]1CO`, the MDR1-MDCK efflux ratio worked out at 122; the intrinsic clearance, human liver microsomes amounted to 27 mL/min/kg; the intrinsic clearance, rat liver microsomes was 142 mL/min/kg; the aqueous solubility amounted to 64.9 µg/mL (≈ 162 µM).
For `COc1cc(Br)c(Nc2nc(-c3c(C)nc4ncccn34)cs2)c(Br)c1`, in that order: 2.59, 75.9 mL/min/kg, 519 mL/min/kg and 29.1 µg/mL (≈ 58.7 µM).
Regarding `C/C=C/CC(=O)N1CCC(c2cc(Cc3ccccc3)n[nH]2)CC1`, the MDR1-MDCK efflux ratio was determined as 2.41; the intrinsic clearance, human liver microsomes turned out to be 52 mL/min/kg; the intrinsic clearance, rat liver microsomes was 771 mL/min/kg; the aqueous solubility amounted to 24.1 µg/mL (≈ 74.5 µM).
`O=C(Nc1ccccc1-c1cn2c(CN3CCNCC3)csc2n1)c1cnc2ccccc2n1` came in with an intrinsic clearance, human liver microsomes of 9.54 mL/min/kg; an intrinsic clearance, rat liver microsomes of 19.2 mL/min/kg; an aqueous solubility of 1.49 µg/mL (≈ 3.17 µM).
For `CNC(=O)c1cccc(NC(=O)N2CCC(Oc3ccccc3Cl)CC2)c1`, the MDR1-MDCK efflux ratio turned out to be 20; the fraction unbound, human plasma is 0.117; the intrinsic clearance, human liver microsomes worked out at 6.6 mL/min/kg; the intrinsic clearance, rat liver microsomes is 223 mL/min/kg. This molecule had an aqueous solubility of 68.8 µg/mL (≈ 177 µM).
As for `CC(=O)Nc1ccccc1CN1CCC(c2nnc3ccccn23)CC1`, the MDR1-MDCK efflux ratio is 49.3; the intrinsic clearance, human liver microsomes was 10 mL/min/kg; the intrinsic clearance, rat liver microsomes was determined as 114 mL/min/kg.
Turning to `CN(C)c1cc(CNc2ccc(C#N)cn2)ccn1`, the MDR1-MDCK efflux ratio amounted to 0.695; the intrinsic clearance, human liver microsomes is 10.4 mL/min/kg; the intrinsic clearance, rat liver microsomes was determined as 94.5 mL/min/kg; the aqueous solubility turned out to be 46 µg/mL (≈ 182 µM).
Molecule `Cc1cccnc1NC(=O)CCc1ccc(F)cc1` registered an intrinsic clearance, human liver microsomes of 6.88 mL/min/kg; an intrinsic clearance, rat liver microsomes of 764 mL/min/kg; an aqueous solubility of 38.1 µg/mL (≈ 147 µM).
With `NC1CCCC(C(=O)Nc2cccc(N3CCNC3=O)c2)C1` (stereo not given), the MDR1-MDCK efflux ratio turned out to be 1.33; the fraction unbound, human plasma amounted to 0.58; the intrinsic clearance, human liver microsomes was ≤ 4.74 mL/min/kg.
On to `COCC(=O)NC1(C#Cc2ccc(NC(=O)C3CC3)nc2)CCCCC1`, for which the intrinsic clearance, human liver microsomes was 16.7 mL/min/kg and the intrinsic clearance, rat liver microsomes was determined as 153 mL/min/kg.
On to `O=C(CCOc1ccccc1)N1CCCC(c2n[nH]cc2-c2ccc(Cl)cc2)C1` (stereo not given), for which the MDR1-MDCK efflux ratio amounted to 4.26 and the aqueous solubility turned out to be 0.8 µg/mL (≈ 1.95 µM).
For `CCSCCC(=O)NCCn1nc(C)c(CC)c1C`, the MDR1-MDCK efflux ratio came to 2.49; the intrinsic clearance, human liver microsomes was 146 mL/min/kg; the intrinsic clearance, rat liver microsomes was 1540 mL/min/kg.
Turning to `Nc1n[nH]cc1-c1cc(Cl)ccc1Oc1cc(F)c(S(=O)(=O)Nc2cscn2)cc1Cl`, the MDR1-MDCK efflux ratio came to 76.2; the fraction unbound, human plasma amounted to 0.00442; the fraction unbound, rat plasma turned out to be 0.00827; the intrinsic clearance, human liver microsomes is 11.6 mL/min/kg. Further, the intrinsic clearance, rat liver microsomes came out at 37.3 mL/min/kg and the aqueous solubility was 29.9 µg/mL (≈ 59.7 µM).
Consider `COC(=O)[C@@H]1C[C@H](O)CN1CC#Cc1ccc(Cl)cc1`, for which the MDR1-MDCK efflux ratio is 0.681 and the aqueous solubility is 31.8 µg/mL (≈ 108 µM).
`O=C1NCCSc2c1sc1ccc(O)cc21`: the fraction unbound, human plasma amounted to 0.0779; the fraction unbound, rat plasma was 0.146; the intrinsic clearance, human liver microsomes worked out at 48.8 mL/min/kg; the intrinsic clearance, rat liver microsomes turned out to be 95.1 mL/min/kg.
